Measured values published in ChEMBL document CHEMBL1201862, “PubChem BioAssay data set” (2004).
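Values below derive from 48-hour exposures of cells grown in 96-well plates, with endpoints linearly interpolated between the two concentrations bracketing the appropriate inhibition level. GI50: concentration for 50% inhibition of growth.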 Calls of active or inactive are those of the source. No stated cut-off is given here; in the data, active = GI50 up to about 1.1 µM and inactive = higher.

Key:
Assay in all cases: NCI tumour cell line growth inhibition, 48 h
[1] = tested on: OVCAR-3
[2] = tested on: LOX IMVI
[3] = tested on: ACHN
[4] = tested on: MCF7
[5] = tested on: COLO 205
[6] = tested on: RPMI-8226
[7] = tested on: EKVX
[8] = tested on: UO-31
[9] = tested on: BT-549
[10] = tested on: MDA-MB-231
[11] = tested on: SW-620
[12] = tested on: HT-29
[13] = tested on: RXF 393
[14] = tested on: NCI-H522
[15] = tested on: A549
[16] = tested on: NCI-H226
[17] = tested on: TK-10
[18] = tested on: CCRF-CEM
[19] = tested on: OVCAR-5
[20] = tested on: SNB-19
[21] = tested on: Hs-578T
[22] = tested on: T47D
[23] = tested on: U-251
[24] = tested on: HCT-15
[25] = tested on: SK-MEL-5
[26] = tested on: SF-539
[27] = tested on: OVCAR-4
[28] = tested on: IGROV-1
[29] = tested on: SK-OV-3
[30] = tested on: Malme-3M
[31] = tested on: SF-295
[32] = tested on: SNB-75
[33] = tested on: 786-0
[34] = tested on: SN12C
[35] = tested on: SK-MEL-28
[36] = tested on: M14
[37] = tested on: SF-268
[38] = tested on: OVCAR-8
[39] = tested on: MDA-N
[40] = tested on: CAKI-1
[41] = tested on: PC-3
[42] = tested on: DU-145
[43] = tested on: KM12
[44] = tested on: K562
[45] = tested on: UACC-257
[46] = tested on: HCT-116
[47] = tested on: HOP-62
[48] = tested on: MDA-MB-435
[49] = tested on: SR
[50] = tested on: NCI-H23
[51] = tested on: SK-MEL-2
[52] = tested on: MOLT-4
[53] = tested on: NCI/ADR-RES
[54] = tested on: HL-60
[55] = tested on: HOP-92
[56] = tested on: HCC 2998
[57] = tested on: NCI-H460
[58] = tested on: A498
[59] = tested on: UACC-62

Question: For `Cc1ccc([N+](=O)[O-])cc1S(=O)(=O)Nc1ccc(C2=NN(c3ccc([N+](=O)[O-])cc3[N+](=O)[O-])C(c3ccccc3)C2)cc1` (configuration not stated), which GI50 [1] is on record?
Answer: The GI50 was 14.2 µM (inactive).

Question: And the GI50 [2]?
Answer: Its GI50 is 17.1 µM (inactive).

Question: What about the GI50 [3] of the same compound?
Answer: The GI50 was 17.6 µM (inactive).

Question: What about the GI50 [4] of the same compound?
Answer: The GI50 was 12.2 µM (inactive).

Question: What about the GI50 [5] of the same compound?
Answer: Its GI50 is 19.2 µM (inactive).

Question: What about the GI50 [6] of the same compound?
Answer: The GI50 was 9.27 µM (inactive).

Question: What about the GI50 [7] of the same compound?
Answer: The GI50 was 18.6 µM (inactive).

Question: And the GI50 [8]?
Answer: Its GI50 is 14.8 µM (inactive).

Question: And the GI50 [9]?
Answer: Its GI50 is 17.2 µM (inactive).

Question: What about the GI50 [10] of the same compound?
Answer: The GI50 was 14.9 µM (inactive).

Question: And the GI50 [11]?
Answer: Its GI50 is 32.5 µM (inactive).

Question: And the GI50 [12]?
Answer: The GI50 was 16.1 µM (inactive).

Question: And the GI50 [13]?
Answer: The GI50 was 14.8 µM (inactive).

Question: And the GI50 [14]?
Answer: The GI50 was 10.1 µM (inactive).

Question: What about the GI50 [15] of the same compound?
Answer: The GI50 was 19.1 µM (inactive).

Question: What about the GI50 [16] of the same compound?
Answer: Its GI50 is 17.4 µM (inactive).

Question: What about the GI50 [17] of the same compound?
Answer: Its GI50 is 26.4 µM (inactive).

Question: And the GI50 [18]?
Answer: The GI50 was 22.1 µM (inactive).

Question: And the GI50 [19]?
Answer: Its GI50 is 23.7 µM (inactive).

Question: What about the GI50 [20] of the same compound?
Answer: Its GI50 is 17.1 µM (inactive).

Question: And the GI50 [21]?
Answer: Its GI50 is 21.9 µM (inactive).

Question: What about the GI50 [22] of the same compound?
Answer: The GI50 was 12.1 µM (inactive).

Question: And the GI50 [23]?
Answer: The GI50 was 12.7 µM (inactive).

Question: What about the GI50 [24] of the same compound?
Answer: Its GI50 is 14.6 µM.

Question: What about the GI50 [25] of the same compound?
Answer: The GI50 was 11.9 µM (inactive).

Question: What about the GI50 [26] of the same compound?
Answer: Its GI50 is 20.3 µM (inactive).

Question: What about the GI50 [27] of the same compound?
Answer: Its GI50 is 19.8 µM (inactive).

Question: What about the GI50 [28] of the same compound?
Answer: Its GI50 is 16.6 µM (inactive).

Question: And the GI50 [29]?
Answer: The GI50 was 21 µM (inactive).

Question: What about the GI50 [30] of the same compound?
Answer: The GI50 was 17.9 µM (inactive).

Question: And the GI50 [31]?
Answer: Its GI50 is 14.3 µM (inactive).

Question: And the GI50 [32]?
Answer: The GI50 was 22.5 µM (inactive).

Question: And the GI50 [33]?
Answer: Its GI50 is 15.4 µM (inactive).

Question: And the GI50 [34]?
Answer: The GI50 was 17.2 µM (inactive).

Question: And the GI50 [35]?
Answer: Its GI50 is 34.5 µM (inactive).

Question: What about the GI50 [36] of the same compound?
Answer: Its GI50 is 17.4 µM (inactive).

Question: What about the GI50 [37] of the same compound?
Answer: The GI50 was 13.1 µM (inactive).

Question: And the GI50 [38]?
Answer: Its GI50 is 17 µM (inactive).

Question: And the GI50 [39]?
Answer: Its GI50 is 16 µM (inactive).

Question: What about the GI50 [40] of the same compound?
Answer: The GI50 was 22.8 µM (inactive).

Question: And the GI50 [41]?
Answer: The GI50 was 14.3 µM (inactive).

Question: What about the GI50 [42] of the same compound?
Answer: The GI50 was 17.9 µM (inactive).

Question: And the GI50 [43]?
Answer: Its GI50 is 18.3 µM (inactive).

Question: And the GI50 [44]?
Answer: Its GI50 is 16 µM (inactive).

Question: What about the GI50 [45] of the same compound?
Answer: The GI50 was 16.2 µM (inactive).

Question: What about the GI50 [46] of the same compound?
Answer: The GI50 was 13 µM (inactive).

Question: And the GI50 [47]?
Answer: Its GI50 is 15.5 µM (inactive).

Question: And the GI50 [48]?
Answer: The GI50 was 19.3 µM (inactive).

Question: What about the GI50 [49] of the same compound?
Answer: Its GI50 is 22.4 µM (inactive).

Question: What about the GI50 [50] of the same compound?
Answer: The GI50 was 14.6 µM (inactive).

Question: What about the GI50 [51] of the same compound?
Answer: Its GI50 is 13.6 µM (inactive).

Question: What about the GI50 [52] of the same compound?
Answer: Its GI50 is 16.8 µM (inactive).

Question: What about the GI50 [53] of the same compound?
Answer: Its GI50 is 18.4 µM (inactive).

Question: And the GI50 [54]?
Answer: Its GI50 is 20.3 µM (inactive).

Question: What about the GI50 [55] of the same compound?
Answer: Its GI50 is 14.8 µM (inactive).

Question: Which results are given for `COC1=C(Br)[C@H](O)[C@@]2(C=C1Br)CC(C(=O)NCCCOc1c(Br)cc(C(O)CNC(C)=O)cc1Br)=NO2` (some centres not stated) [APLYSINAMISINE III]?
Answer: GI50 [1]: > 10 µM (inactive); GI50 [56]: > 10 µM (inactive); GI50 [2]: > 10 µM (inactive); GI50 [3]: > 10 µM (inactive); GI50 [4]: 6.18 µM (inactive); GI50 [5]: > 10 µM (inactive); GI50 [6]: > 10 µM (inactive); GI50 [8]: > 10 µM (inactive); GI50 [9]: 2.79 µM (inactive); GI50 [10]: > 10 µM (inactive); GI50 [11]: > 10 µM (inactive); GI50 [12]: > 10 µM (inactive); GI50 [13]: > 10 µM (inactive); GI50 [14]: 4.17 µM (inactive); GI50 [15]: > 10 µM (inactive); GI50 [16]: > 10 µM (inactive); GI50 [17]: > 10 µM (inactive); GI50 [18]: > 10 µM (inactive); GI50 [19]: > 10 µM (inactive); GI50 [20]: > 10 µM (inactive); GI50 [21]: > 10 µM (inactive); GI50 [22]: > 10 µM (inactive); GI50 [23]: > 10 µM (inactive); GI50 [24]: > 10 µM; GI50 [25]: 4.86 µM (inactive); GI50 [26]: > 10 µM (inactive); GI50 [27]: > 10 µM (inactive); GI50 [28]: > 10 µM (inactive); GI50 [29]: > 10 µM (inactive); GI50 [30]: 6.03 µM (inactive); GI50 [31]: > 10 µM (inactive); GI50 [32]: 2.79 µM (inactive); GI50 [33]: > 10 µM (inactive); GI50 [34]: > 10 µM (inactive); GI50 [35]: > 10 µM (inactive); GI50 [36]: 8.73 µM (inactive); GI50 [37]: > 10 µM (inactive); GI50 [38]: > 10 µM (inactive); GI50 [39]: 2.11 µM (inactive); GI50 [40]: > 10 µM (inactive); GI50 [41]: > 10 µM (inactive); GI50 [42]: > 10 µM (inactive); GI50 [43]: > 10 µM (inactive); GI50 [44]: 2.24 µM (inactive); GI50 [45]: > 10 µM (inactive); GI50 [46]: > 10 µM (inactive); GI50 [47]: > 10 µM (inactive); GI50 [48]: 2.18 µM (inactive); GI50 [49]: 0.00518 µM (active); GI50 [57]: > 10 µM (inactive); GI50 [58]: > 10 µM (inactive); GI50 [50]: > 10 µM (inactive); GI50 [51]: 8.79 µM (inactive); GI50 [52]: 7.73 µM (inactive); GI50 [59]: > 10 µM (inactive); GI50 [53]: > 10 µM (inactive); GI50 [54]: 2.19 µM (inactive)
